Structures can show the parent of a compound that is named as a salt.
Target: T1, human GR (glucocorticoid receptor) (Homo sapiens, UniProt P04150)
T1 construct: expressed in transfected cells; host or cells: 293 cells
T1 sequence (P04150 1-777): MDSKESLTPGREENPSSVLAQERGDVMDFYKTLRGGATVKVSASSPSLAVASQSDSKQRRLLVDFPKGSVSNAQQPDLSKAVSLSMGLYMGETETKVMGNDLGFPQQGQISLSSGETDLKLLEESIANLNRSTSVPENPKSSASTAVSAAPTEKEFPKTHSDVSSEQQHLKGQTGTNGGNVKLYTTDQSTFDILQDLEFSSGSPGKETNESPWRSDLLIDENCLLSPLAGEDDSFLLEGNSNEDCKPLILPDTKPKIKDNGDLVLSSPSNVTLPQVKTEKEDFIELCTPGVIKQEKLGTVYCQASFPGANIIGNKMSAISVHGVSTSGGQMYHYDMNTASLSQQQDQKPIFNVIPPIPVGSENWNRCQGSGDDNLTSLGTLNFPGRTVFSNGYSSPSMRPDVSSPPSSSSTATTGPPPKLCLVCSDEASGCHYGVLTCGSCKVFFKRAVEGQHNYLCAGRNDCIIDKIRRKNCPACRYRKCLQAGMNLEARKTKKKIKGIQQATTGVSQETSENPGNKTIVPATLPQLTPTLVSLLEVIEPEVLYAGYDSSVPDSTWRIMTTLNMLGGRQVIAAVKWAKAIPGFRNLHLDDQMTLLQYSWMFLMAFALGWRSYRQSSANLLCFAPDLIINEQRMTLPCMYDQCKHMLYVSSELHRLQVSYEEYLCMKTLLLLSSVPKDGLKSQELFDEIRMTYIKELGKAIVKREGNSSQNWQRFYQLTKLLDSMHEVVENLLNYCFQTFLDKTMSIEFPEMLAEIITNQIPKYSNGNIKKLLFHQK
Assay: Alternative Binding Assay Protocol (Method 2), GR
Settings: 293-GR lysate, 3H-dexamethasone
Experimental: Cell lysates from 293 cells overexpressing human GR (glucocorticoid receptor), AR (androgen receptor), MR (mineralocorticoid receptor) or PR (progesterone receptor) are used for competition binding assays to determine Ki values for test compounds. Briefly, competition binding assays are run in a buffer containing 20 mM Hepes, pH 7.6, 0.2 mM EDTA, 75 mM NaCl, 1.5 mM MgCl2, 20% glycerol, 20 mM sodium molybdate, 0.2 mM DTT, 20 ug/ml aprotinin and 20 ug/ml leupeptin, using either 0.3 nM ^3H-dexamethasone for GR binding, 0.36 nM ^3H-methyltrienolone for AR binding, 0.25 nM ^3H-aldosterone for MR binding, or 0.29 nM ^3H-methyltrienolone for PR binding, and either 20 ug 293-GR lysate, 22 ug 293-AR lysate, 20 ug 293-MR lysate or 40 ug 293-PR lysate per well. Competing compounds are added at various concentrations in half-log increments. Non-specific binding is determined in the presence of 500 nM dexamethasone for GR binding, 500 nM aldosterone for MR binding, or 500 nM methyltrienolone for AR and PR binding. The binding reaction (140 μl) is incubated for overnight at 4° C., then 70 μl of cold charcoal-dextran buffer (containing per 50 ml of assay buffer, 0.75 g of charcoal and 0.25 g of dextran) is added to each reaction. Plates are mixed 8 minutes on an orbital shaker at 4° C. Plates are then centrifuged at 3,000 rpm at 4° C. for 10 minutes. An aliquot of 120 μl of the mix is transferred to another 96-well plate and 175 μl of Wallac Optiphase “Hisafe 3” scintillation fluid is added to each well. Plates are sealed and shaken vigorously on an orbital shaker. After an incubation of 2 hrs, plates are read in a Wallac Microbeta counter. The data is used to calculate an IC50 and % Inhibition at 10 μM. The Kd for ^3H-dexamethasone for GR binding, ^3H-methyltrienolone for AR binding, ^3H-aldosterone for MR binding, or ^3H-methyltrienolone for PR binding, is determined by saturation binding. The IC50 values for compounds are converted to Ki using Cheng-Prusoff equation and the Kd determined by saturation binding assay.

`CC(C)(CN1CCOCC1)n1c(=O)[nH]c2cc(/C=C3\c4ccccc4COc4cc(F)ccc43)ccc21` [Example 1, 1-(1,1-Dimethyl-2-morpholin-4-yl-ethyl)-5-(3-fluoro-6H-dibenzo[b,e]oxepin-11-ylidenemethyl)-1,3-dihydro-benzoimidazol-2-one, E isomer] was tested, and the Ki was less than 1000 nM.

With `CN1CCC(n2c(=O)[nH]c3cc(/C=C4/c5ccc(F)cc5OCc5c(F)cccc54)ccc32)CC1` [Example 2, 5-(3,7-Difluoro-6H-dibenzo[b,e]oxepine-11-ylidenemethyl)-1-(1-methyl-piperidin-4-yl)-1,3-dihydro-benzoimidazol-2-one, E-isomer] the Ki was less than 1000 nM.

With `CN1CCC(n2c(=O)[nH]c3cc(/C=C4\c5ccccc5COc5cc(F)ccc54)ccc32)CC1` [Example 3, 5-(3-Fluoro-6H-dibenzo[b,e]oxepin-11-ylidenemethyl)-1-(1-methyl-piperidin-4-yl)-1,3-dihydro-benzoimidazol-2-one, E isomer] the Ki was less than 500 nM.

For `CN1CCC(n2c(=O)[nH]c3cc(/C=C4\c5ccc(F)cc5COc5cc(F)ccc54)ccc32)CC1` [Example 4, 5-(3,8-Difluoro-6H-dibenzo[b,e]oxepin-11-ylidenemethyl)-1-(1-methyl-piperidin-4-yl) -1,3-dihydro-benzoimidazol-2-one, E isomer], the Ki was less than 1000 nM.

With `CCN1CC[C@@H](n2c(=O)[nH]c3cc(/C=C4\c5ccc(F)cc5COc5cc(F)ccc54)ccc32)C1` [Example 5, 5-(3,8-Difluoro-6H-dibenzo[b,e]oxepin-11-ylidenemethyl)-1-(1-ethyl-pyrrolidin-3-yl) -1,3-dihydro-benzoimidazol-2-one, HOAc salt, E isomer, chiral] the Ki was less than 500 nM.

Molecule `CN1CCN(CCCn2c(=O)[nH]c3cc(/C=C4\c5ccccc5COc5cc(F)ccc54)ccc32)CC1` [Example 7] has a Ki of less than 500 nM.

For `CN1CCN(CCn2c(=O)[nH]c3cc(/C=C4\c5ccccc5COc5cc(F)ccc54)ccc32)CC1` [Example 8], the Ki was less than 500 nM.

For `O=c1[nH]c2cc(/C=C3\c4ccccc4COc4cc(F)ccc43)ccc2n1[C@H]1CCNC1` [Example 9], the Ki was less than 500 nM.

`C[C@H](CN1CCOCC1)n1c(=O)[nH]c2cc(/C=C3\c4ccccc4COc4cc(F)ccc43)ccc21` [Example 10] gave a Ki of less than 500 nM.

`C[C@@H](CN1CCOCC1)n1c(=O)[nH]c2cc(/C=C3\c4ccccc4COc4cc(F)ccc43)ccc21` [Example 11] gave a Ki of less than 500 nM.

In the case of `O=c1[nH]c2cc(/C=C3\c4ccccc4COc4cc(F)ccc43)ccc2n1C1CCNCC1` [Example 12], the Ki is reported as less than 1000 nM.

Work on `C[C@@H]1CN(CCn2c(=O)[nH]c3cc(/C=C4\c5ccccc5COc5cc(F)ccc54)ccc32)C[C@H](C)O1` [Example 13] yielded a Ki of less than 500 nM.

For `O=c1[nH]c2cc(/C=C3\c4ccccc4COc4cc(F)ccc43)ccc2n1CCN1CCNCC1` [Example 14], the Ki was less than 500 nM.

Molecule `O=c1[nH]c2cc(/C=C3\c4ccccc4COc4cc(F)ccc43)ccc2n1C1CCNC1` (centres unmarked) [Example 15] has a Ki of less than 500 nM.

`O=c1[nH]c2cc(/C=C3\c4ccccc4COc4cc(F)ccc43)ccc2n1C1CCNC1` (centres unmarked) [Example 16] was tested, and the Ki was less than 500 nM.

`O=c1[nH]c2cc(/C=C3\c4ccccc4COc4cc(F)ccc43)ccc2n1C1CNC1` [Example 17] showed a Ki of less than 500 nM.

`O=c1[nH]c2cc(/C=C3\c4ccccc4COc4cc(F)ccc43)ccc2n1C[C@@H]1CCCN1` [Example 18] gave a Ki of less than 1000 nM.

`O=c1[nH]c2cc(/C=C3\c4ccccc4COc4cc(F)ccc43)ccc2n1C[C@H]1CCCN1` [Example 19] showed a Ki of less than 1000 nM.

In the case of `CN1CCN(CCn2c(=O)[nH]c3cc(/C=C4\c5ccc(F)cc5COc5cc(F)ccc54)ccc32)CC1` [Example 20], the Ki is reported as less than 500 nM.

`O=c1[nH]c2cc(/C=C3\c4ccc(F)cc4COc4cc(F)ccc43)ccc2n1CCN1CCCC1` [Example 21] showed a Ki of less than 500 nM.

With `C[C@H](CN1CCOCC1)n1c(=O)[nH]c2cc(/C=C3\c4ccc(F)cc4COc4cc(F)ccc43)ccc21` [Example 22] the Ki was less than 500 nM.

`C[C@@H](CN1CCOCC1)n1c(=O)[nH]c2cc(/C=C3\c4ccc(F)cc4COc4cc(F)ccc43)ccc21` [Example 23] gave a Ki of less than 1000 nM.

`CC(C)(CN1CCOCC1)n1c(=O)[nH]c2cc(/C=C3\c4ccc(F)cc4COc4cc(F)ccc43)ccc21` [Example 24] was tested, and the Ki was less than 1000 nM.

`C[C@@H]1CN(CCn2c(=O)[nH]c3cc(/C=C4\c5ccc(F)cc5COc5cc(F)ccc54)ccc32)C[C@H](C)O1` [Example 25] gave a Ki of less than 500 nM.

For `O=c1[nH]c2cc(/C=C3\c4ccc(F)cc4COc4cc(F)ccc43)ccc2n1CCCN1CCOCC1` [Example 26], the Ki was less than 500 nM.

For `O=c1[nH]c2cc(/C=C3\c4ccc(F)cc4COc4cc(F)ccc43)ccc2n1C1CCNCC1` [Example 28], the Ki was less than 500 nM.

`O=c1[nH]c2cc(/C=C3\c4ccc(F)cc4COc4cc(F)ccc43)ccc2n1[C@H]1CCNC1` [Example 29] showed a Ki of less than 500 nM.

`O=c1[nH]c2cc(/C=C3\c4ccc(F)cc4COc4cc(F)ccc43)ccc2n1C1CNC1` [Example 30] showed a Ki of less than 500 nM.

Molecule `O=c1[nH]c2cc(/C=C3\c4ccc(F)cc4COc4cc(F)ccc43)ccc2n1[C@@H]1CCNC1` [Example 31] has a Ki of less than 500 nM.

`CN1CC[C@H](n2c(=O)[nH]c3cc(/C=C4\c5ccc(F)cc5COc5cc(F)ccc54)ccc32)C1` [Example 32] gave a Ki of less than 500 nM.

`CCN1CC[C@H](n2c(=O)[nH]c3cc(/C=C4\c5ccc(F)cc5COc5cc(F)ccc54)ccc32)C1` [Example 33] showed a Ki of less than 500 nM.

Work on `CN1CCN(CCn2c(=O)[nH]c3cc(/C=C4/c5ccc(F)cc5OCc5c(F)cccc54)ccc32)CC1` [Example 34] yielded a Ki of less than 500 nM.

`O=c1[nH]c2cc(/C=C3/c4ccc(F)cc4OCc4c(F)cccc43)ccc2n1CCN1CCCC1` [Example 35] was tested, and the Ki was less than 1000 nM.

With `O=c1[nH]c2cc(/C=C3/c4ccc(F)cc4OCc4c(F)cccc43)ccc2n1C1CCNCC1` [Example 36] the Ki was less than 500 nM.

`O=c1[nH]c2cc(/C=C3/c4ccc(F)cc4OCc4c(F)cccc43)ccc2n1[C@H]1CCNC1` [Example 37] gave a Ki of less than 500 nM.

With `C[C@H](CN1CCOCC1)n1c(=O)[nH]c2cc(/C=C3/c4ccc(F)cc4OCc4c(F)cccc43)ccc21` [Example 38] the Ki was less than 500 nM.

Molecule `C[C@@H](CN1CCOCC1)n1c(=O)[nH]c2cc(/C=C3/c4ccc(F)cc4OCc4c(F)cccc43)ccc21` [Example 39] has a Ki of less than 1000 nM.

`CC(C)(CN1CCOCC1)n1c(=O)[nH]c2cc(/C=C3/c4ccc(F)cc4OCc4c(F)cccc43)ccc21` [Example 40] was tested, and the Ki was less than 1000 nM.

In the case of `C[C@@H]1CN(CCn2c(=O)[nH]c3cc(/C=C4/c5ccc(F)cc5OCc5c(F)cccc54)ccc32)C[C@H](C)O1` [Example 41], the Ki is reported as less than 500 nM.

`O=c1[nH]c2cc(/C=C3/c4ccc(F)cc4OCc4c(F)cccc43)ccc2n1CCCN1CCOCC1` [Example 42] showed a Ki of less than 500 nM.

`O=c1[nH]c2cc(/C=C3/c4ccc(F)cc4OCc4c(F)cccc43)ccc2n1CCN1CCNCC1` [Example 43] was tested, and the Ki was less than 500 nM.

Molecule `CCN1CC[C@H](n2c(=O)[nH]c3cc(/C=C4/c5ccc(F)cc5OCc5c(F)cccc54)ccc32)C1` [Example 44] has a Ki of less than 1000 nM.

In the case of `CN1CC[C@H](n2c(=O)[nH]c3cc(/C=C4/c5ccc(F)cc5OCc5c(F)cccc54)ccc32)C1` [Example 45], the Ki is reported as less than 10000 nM.

`CCN1CC[C@@H](n2c(=O)[nH]c3cc(/C=C4/c5ccc(F)cc5OCc5c(F)cccc54)ccc32)C1` [Example 46] gave a Ki of less than 1000 nM.

— US20070037788A1, “Tricyclic steroid hormone nuclear receptor modulators” (Eli Lilly and Company, priority 2003, published 2007)
